Laboratory results reported in patent US7906484B2, “Complex for transferring an anionic substance into a cell” (Alnylam Pharmaceuticals, Inc., priority 2006, dated 2011).

Legend:
[1] = system: E6AP mRNA in HCT116 cells; assay: siRNA AD-8724 delivery into HCT116 cells, inhibition of E6AP mRNA expression by bDNA assay; type: cell-based, human; conditions: for capacity for cross membrane transport of siRNA (quantity not given): 37° C., siRNA/peptide conc. 250 nM/2.5 μM
Method: All further experiments were carried out using HCT116 cells and inhibition of E6AP expression as readout.
HCT116-cells were obtained from the American Type Culture Collection (ATCC# CCL-247). They were cultured in McCoy's 5A medium (Biochrom AG, Berlin, Germany, Cat.# F1015) containing 10% fetal calf serum (FCS; Biochrom AG, Berlin, Germany, Cat.# S0115) and 2 mM L-Glutamin (Biochrom AG, Berlin, Germany, Cat.#: K0283) (standard growth medium). For incubation with peptide/siRNA, complexes, the medium was replaced by serum-free McCoy's 5A medium containing 2 mM L-Glutamin (serum free medium). After incubation with complexes for 4 h, McCoy's 5A medium containing 30% fetal calf serum and 2 mM L-Glutamin (triple FCS medium) was added to restore an overall 10% FCS in the medium.
The E6AP-specific siRNA denoted AD-8724 herein was used, having the following sequences: antisense strand: 5′-ucacauuccacguuaggugTsT-3′ (SEQ ID NO:51), sense strand 5′-caccuaacguggaaugugaTsT-3′; (SEQ ID NO:52; lower case letters: ribonucleotides; s: phosphorothioate backbone linkage). As a negative control, an siRNA specific for eGFP, denoted AD-5107 herein, was used, having the following sequences: antisense strand: 5′-aagucgugcugcuucauguggOMesuOMesc-3′ (SEQ ID NO:19), sense strand 5′-[…]-3′ (SEQ ID NO:18; lower case letters: ribonucleotides; subscript OMe: 2′-O-methyl-ribonucleotide; s: phosphorothioate backbone linkage). In addition to the non-specific control siRNA AD-5107, mock transfected cells treated with standard growth medium only were used as negative controls. As a positive control, AD-8724 was transfected into the cells using Lipofectamine2000™ (Invitrogen, Karlsruhe, Germany, Cat. No. 11668-019). As a further control, AD-5107 was transfected into cells using Lipofectamine2000™. All assays were performed in quadruplicates.
SiRNA/peptide complexes were prepared by mixing a solution of the siRNA in deionized water with a solution of the peptide in deionized water at the appropriate concentrations to give the desired ratio of siRNA/peptide at the desired concentration of the complex. The mixture was incubated at room temperature for 30 min and kept at 4° C. until use, and used within 24 h.
For transfections with siRNA/peptide complexes, 1.5×10^5 HCT116-cells per well in 150 μl standard growth medium were seeded into polystyrene 96 well plates and grown for 24 h at 37° C. in an atmosphere containing 5% CO2. The medium was removed by aspiration, and 90 μl serum-free medium and 10 μl of siRNA/peptide complex solution were added. Cells were incubated for 4 h at 37° C./5% CO2, 50 μl triple FCS medium were added, and the cells incubated for another 20 h under identical conditions. Subsequently, E6AP mRNA content was determined as described below.
For Lipofectamine2000™ transfections, 0.5 μl Lipofectamine2000™ were mixed with 12 μl OptiMem™ (Invitrogen, Karlsruhe, Germany, Cat. No. 11058-021) and incubated for 15 min. 1 μl of a 5 μM solution of the respective siRNA in PBS (Biochrom AG, Berlin, Germany, Cat-No: L182-05) were added to 11.5 μl OptiMeM™, mixed with the Lipofectamine2000™/OptiMem™ solution, and incubated for further 15 min. 1.5×10^5 HCT116-cells per well in 150 μl standard growth medium were grown for 24 h as described above, the growth medium removed from the cells by aspiration, and 75 μl fresh standard growth medium and the 25 μl of the siRNA/Lipofectamine2000™ mix were added to the well, to give a final siRNA concentration of 50 nM. The cells were incubated for 24 h at 37° C./5% CO2 and E6AP mRNA concentration determined.
The QuantiGene™ bDNA-kit from Panomics, Inc., Fremont, USA, was used according to manufacturer's instructions. Briefly, cells were lysed by adding 50 μl of Lysis Mixture (from QuantiGene bDNA-kit) to each well and incubation at 53° C. for 1 h. […]

eGFP-mRNA = assay: Influence of peptide/siRNA ratio on siRNA activity in HCT116 cells; type: cell-based; conditions: 250 nM siRNA
Method: The optimal ratio of (peptide):(anionic substance) for complex formation, was determined in section 3 above to lie in the range of 8:1 to 13:1 by titrating a fixed concentration of the anionic substance with increasing amounts of the peptide, and monitoring complex formation by electrophoresis of the mixture. To further validate and possibly narrow down the optimum ratio of peptide/anionic substance, an assay with a functional readout was performed. HCT116 cells were incubated with siRNA complexes as described above at concentrations such that the amount of siRNA in the incubation mixture corresponds to a 250 nM concentration of the siRNA, and the peptide/siRNA ratio was 8:1, 10:1, 12:1, or 14:1.

[2] = system: E6AP mRNA in HCT116 cells; assay: siRNA AD-8724 delivery into HCT116 cells, inhibition of E6AP mRNA expression by bDNA assay; type: cell-based, human; conditions: 4° C., siRNA/peptide conc. 250 nM/2.5 μM
[3] = system: ENaC-alpha mRNA in H441 cells; assay: siRNA delivery into H441 cells, ENaC-alpha mRNA quantified by bDNA assay; type: cell-based, human; conditions: AD-7007
Method: In order to test the potential of adding Histidine residues for improving the cross-membrane transport properties of peptides, we synthesized a modified ppTG20, termed ppTGHis herein, wherein 4 consecutive Histidine moieties were added to the C-terminus of ppTG20. We then compared the transport of siRNAs complexed with ppTG20 or ppTGHis into H441 cells, as evaluated by the ability of siRNAs to inhibit the expression of a gene constitutively expressed in H441 cells, ENaC-alpha. […]
For transfection with peptide/siRNA complexes, H441 cells were seeded at 1.5×10^4 cells/well on 96-well plates (Greiner Bio-One GmbH, Frickenhausen, Germany) in 75 μl of growth medium. […] Thereafter, the cells were lysed by adding 50 μl of lysis mixture (content of the QuantiGene bDNA-kit from Panomics, Inc., Fremont, USA) to each well containing 100 μl of growth medium at 53° C. for 30 min, and ENaC mRNA levels were subsequently quantified with the Quantigene Explore Kit (Panomics, Inc., Dumbarton Circle Fremont, USA, cat. No. QG-000-02) according to the manufacturer's protocol. Finally, chemoluminescence was measured in a Victor2-Light (Perkin Elmer, Wiesbaden, Germany) as RLUs (relative light units) and values obtained with the hENaC probeset were normalized to the respective GAPDH values for each well (probe sequences shown in Table 2 and Table 3). […]

[4] = AD-8724, siRNA/peptide conc. 25 nM/250 nM
[5] = AD-8724, siRNA/peptide conc. 250 nM/2.5 μM
[6] = AD-8724, siRNA/peptide conc. 1 μM/10 μM
[7] = siRNA AD-8724 250 nM, molar peptide/siRNA ratio 12.5:1

Sequence	capacity for cross membrane transport of siRNA (quantity not given) [1]	remaining E6AP mRNA (in % of mock) [1, 4] [%]	remaining E6AP mRNA (in % of mock) [1, 5] [%]	remaining E6AP mRNA (in % of mock) [1, 6] [%]	remaining E6AP mRNA (in % of mock) [1, 7] [%]	Remaining eGFP-mRNA in % of mock-transfected controls (eGFP-mRNA; peptide/siRNA ratio 8:1) [%]	Remaining eGFP-mRNA in % of mock-transfected controls (eGFP-mRNA; peptide/siRNA ratio 10:1) [%]	Remaining eGFP-mRNA in % of mock-transfected controls (eGFP-mRNA; peptide/siRNA ratio 12:1) [%]	Remaining eGFP-mRNA in % of mock-transfected controls (eGFP-mRNA; peptide/siRNA ratio 14:1) [%]	capacity for cross membrane transport of siRNA (quantity not given) [2] [%]	transfection efficiency and resulting siRNA activity compared with Lipofectamine [3]	transfection efficiency and resulting siRNA activity relative to ppTG20 [3]
RLFRALLRLLRSLWRLLRRA [AP-4]	30 ± 5% RT	96 ± 24	49 ± 11	37 ± 9	34 ± 6	23 ± 6	18 ± 6	52 ± 6	43 ± 4	56 ± 4	–	–
GLFRALLRLLRSLWRLLLRAHHHH [ppTGHis, ppTG20 with 4 histidines added to the C-terminus]	–	–	–	–	–	–	–	–	–	–	comparable to that of Lipofectamine™	approximately 10 fold
HLFRALLRLLRHLWRLLLRA [AP-10]	13 ± 8%	98 ± 8	28 ± 4	17 ± 1	41 ± 21	42 ± 3	24 ± 4	24 ± 2	32 ± 4	81 ± 16	–	–
